# Source: patent US11560420B2, “Method for producing antibodies using ovine B-cells and uses thereof” (Roche Diagnostics Operations, Inc., priority 2013, dated 2023)
# B1: IL-4: human IL-4 (Peprotech), 10 ng/ml added to the basal medium (protein, UniProt P05112 25-153, looked up)
# Interleukin-4: HKCDITLQEIIKTLNSLTEQKTLCTELTVTDIFAASKNTTEKETFCRAATVLRQFYSHHEKDTRCLGATAQQFHRHKQLIRFLKRLDRNLWGLAGLNSCPVKEANQSTLENFLERLKTIMREKYSKCSS
# Experiments:
# [1] = test system: single sIgG+CD21+ B-cells; assay: Antigen-specificity of IgG secreted by single-cell B-cell clones (antigen-specific ELISA); assay type: cell-based, sheep; settings: for % wells with antigen-specific IgG: % of IgG-secreting clones
# Method: The specificity of the secreted antibodies was analyzed using an antigen-specific ELISA (data not shown).
# Additionally, the specificity of the secreted antibodies was analyzed using an antigen-specific ELISA (data not shown).
# Biotin-conjugated antigens were immobilized on a streptavidin coated 96-well plate (MicroCoat, Bernried, Germany). The biotinylated antigens (100 μl/well) were used at a concentration of 100-300 ng/ml in PBS/1% RPLA4 (bovine plasma albumin) (Roche Diagnostics GmbH, Mannheim, Germany) and wells were incubated with the diluted antigens for 1 hour at room temperature (RT). After washing with Wash Buffer (0.9% NaCl/0.05% Tween) the supernatants of the in vitro cultivated B-cells or serial dilutions of purified polyclonal sheep IgG (Roche) were added to the plates and incubated for 1 hour at RT. After washing with Wash Buffer wells were incubated with a donkey anti-sheep IgG (H+L) antibody (1:15,000 dilution in PBS/1% RPLA4) labeled with horseradish peroxidase (Dianova, cat. #713-035-147). After incubation for 1 hour at RT the plates were washed with Wash Buffer and signals were detected using ABTS solution (Roche Diagnostics GmbH, Mannheim, Germany) as substrate.
# [2] = test system: single sIgG+CD21+ B-cells; assay: Sorting and cultivation of single sIgG+CD21+ B-cells, IgG concentration of supernatant by ELISA; assay type: cell-based, sheep; settings: for % IgG positive wells: % of total wells
# Source text: PBMCs were isolated from sheep immunized with a KLH-conjugated hapten, underwent positive panning for enrichment of antigen-specific B-cells and were stained for both sheep sIgG and CD21. Single cells were sorted in 96-well plates using a BD FACS Aria cell sorter. Cells were cultivated in IMDM supplemented with 10% FCS, SAC, sheep TSN and PMA. Cells were cultivated in the presence of EL4B5 feeder cells. After one week of cultivation, the IgG concentration of the supernatant of the cells was analyzed by ELISA.
# This experiment was performed again. PBMCs were isolated from sheep immunized with another KLH-conjugated hapten, underwent positive panning for enrichment of antigen-specific B-cells and were stained for both sheep sIgG and CD21. Double-positive single cells were sorted in 96-well plates using a BD FACS Aria cell sorter. Cells were cultivated in IMDM supplemented with 10% FCS, SAC, sheep TSN and PMA in the presence of EL4B5 feeder cells.
# In control experiments single cells were cultivated using the same cultivation conditions in the absence of PMA. After one week of cultivation, the IgG concentration of the cell supernatants was analyzed by ELISA. After one week of cultivation in the presence of PMA a total of approx. 16% of total wells contained IgG-secreting B-cell clones. In turn, 35% of the wells with IgG-secreting clones contained a low IgG concentration, 35% contained an average IgG concentration and 30% contained a high IgG concentration. In the absence of PMA none of the wells contained IgG-secreting B-cell clones.
# Sheep PBMCs from immunized animals were isolated as described above. Antigen-specific B-cells were enriched by positive panning using the biotinylated antigen and magnetic streptavidin microbeads (Miltenyi Biotec) as described above. Cells were stained using a 1:50 diluted FITC-labeled anti-sheep IgG monoclonal antibody (Clone GT-34) (Sigma-Aldrich) in combination with a 1:10 diluted RPE-labeled anti-sheep CD21 mAb (AbD Serotec). Cells were incubated with the mAbs for 45 min. at 4° C. under gentle rotation. In control experiments aliquots of the cells were stained with the individual mAbs alone (single staining). Unstained cells served as negative control.
# After washing with PBS cells were resuspended in FACS buffer and subjected to cell sorting using a FACS Aria I cell sorter (BD Biosciences). Single sIgG^+CD21^+ double positive B-cells were identified and sorted into a 96-well plate (one cell/well) containing 280 μl medium and γ-irradiated murine EL4B5 feeder cells (approx. 5×10^4 feeder cells/well seeded 24 hours before cell sorting into the plates).
# The medium for cultivation of single ovine B-cells was IMDM (Gibco) was supplemented with 10% FCS (Hyclone), L-Penicillin-Streptomycin-Glutamine (1×) (Gibco), 55 μM 2-Mercaptoethanol (Gibco), 0.025% Pluronic F-68 (Gibco), sheep TSN (1:20 dilution), SAC (1:10,000 dilution) (Calbiochem) and 1 μg/ml PMA (Sigma-Aldrich).
# B-cells were incubated for 7 to 10 days in the medium at 37° C./5% CO2 in a humidified atmosphere. Subsequently the supernatant of the cells was harvested and the IgG concentration was determined by ELISA as described below
# A biotin-conjugated monoclonal anti-sheep IgG antibody (cat. #213-062-177, Dianova, Hamburg, Germany) was immobilized on a streptavidin coated 96-well plate (MicroCoat, Bernried, Germany). The mAb (100 μl/well) was used at a concentration of 300 ng/ml in PBS/1% RPLA4 (bovine plasma albumin) (Roche Diagnostics GmbH, Mannheim, Germany) and wells were incubated for 1 hour at room temperature (RT) with the diluted mAb. After washing with Wash Buffer (0.9% NaCl/0.05% Tween) the supernatants of the in vitro cultivated B-cells or serial dilutions of purified polyclonal sheep IgG (Roche) were added to the plates and incubated for 1 h at RT. After washing with Wash Buffer wells were incubated with a donkey anti-sheep IgG (H+L) antibody (1:15,000 dilution in PBS/1% RPLA4) labeled with horseradish peroxidase (Dianova, cat. #713-035-147). […]
# sIgG+CD21+ B-cells = assay: IgG secretion by in vitro cultivated pools of sIgG+CD21+ B-cells (sheep IgG ELISA of supernatants); assay type: cell-based
# Source text: (§1) To exemplify the current invention PBMCs were isolated from sheep immunized with a KLH-conjugated hapten and underwent positive panning using the biotinylated hapten and magnetic streptavidin beads to enrich antigen-specific B-cells. Subsequently, B-cells were stained for both surface IgG (sIgG) and the B-cell marker CD45R or CD21. Pools of 50 cells (sIgG^+CD45R^+ or sIgG^+CD21^+) were sorted into 96-well plates using a BD FACS Aria cell sorter. Cells were cultivated in medium supplemented with different factors in order to identify a medium composition that promotes the proliferation of the B-cells as well as the differentiation to IgG secreting cells (i.e. plasma cells)
# (§2) In all experiment the basal medium was supplemented with 10% FCS, SAC and sheep TSN. Cells were cultivated in the presence of EL4B5 feeder cells.
# (§3) Pools of 50 cells/well of antigen-enriched sIgG^+CD21^+ B-cells were cultivated in the indicated medium in a 96-well plate in the presence of EL4B5 feeder cells. After one week of cultivation the sheep IgG concentration of the supernatants was analyzed using a sheep IgG ELISA. The results for IMDM as basal medium are presented in FIG. 2 and for DMEM and IMDM as basal medium in the following Table.
# (§4) For a more detailed analysis 4 categories of wells were defined: Wells with no IgG producing cells (IgG concentration below limit of detection, i.e. <10 ng/ml), wells with low IgG concentrations (10-50 ng/ml), wells with an average IgG concentration (50-200 ng/ml) and wells with a high IgG concentration (200-400 ng/ml).
# (§5) Suffolk-Merino sheep were immunized several times using a KLH-coupled hapten as immunogen (500 μg dose formulated in an adjuvant). Five days before isolation of B-cells sheep were boosted by a subcutaneous application of the immunogen (500 μg dose per animal formulated in an adjuvant). For isolation of B-cells approx. 150 ml EDTA-blood was taken from the animals and mixed with an equal volume of PBS. The diluted blood was loaded on Leucosep™ tubes (Greiner Bio-One, Frickenhausen, Germany) (20 ml per tube) and centrifuged for 15 min. at 800×g at room temperature. After centrifugation the PBMCs (peripheral blood mononuclear cells) were collected, washed with PBS and counted using a counting chamber.
# Following washing with PBS the PBMCs were resuspended in FACS Buffer (PBS/1% BSA) at 5×10^7 cells/ml. For positive panning of antigen-specific B-cells, the cells were labeled by incubation with the biotinylated hapten (500 ng/ml) for 30 min. at 4° C. under gentle rotation. Subsequently cells were washed with PBS and resuspended in Labeling Buffer (PBS/2 mM EDTA) at 1×10^7 cells per 90 μl. […]
# sIgG+CD45R+ B-cells = assay: IgG secretion by in vitro cultivated pools of sIgG+CD45R+ B-cells (sheep IgG ELISA of supernatants); assay type: cell-based; settings: for number of IgG-containing wells compared with basal medium: basal medium supplemented with the factor
# Source text: as §1, §2
# as §3, with “sIgG^+CD45R^+” for “sIgG^+CD21^+”, “different media” for “indicated medium”, “1” for “2”
# as §4, §5
# Following washing with PBS the PBMCs were resuspended in FACS Buffer (PBS/1% BSA) at 5×10^7 cells/ml. For positive panning of antigen-specific B-cells, the cells were labeled by incubation with the biotinylated hapten (500 ng/ml) for 30 min. at 4° C. under gentle rotation. Subsequently cells were washed with PBS and resuspended in Labeling Buffer (PBS/2 mM EDTA) at 1×10^7 cells per 90 μl. Cells were incubated with magnetic streptavidin microbeads (Miltenyi Biotec, Bergisch-Gladbach, Germany) for 30 min. at 4° C. under gentle rotation (using 10 μl of the beads per 90 μl of cell suspension). After washing with PBS cells were resuspended in MACS Buffer (PBS/1% BSA/2 mM EDTA) at 2×10^8 cells/ml and loaded on MACS column (Miltenyi Biotec) equilibrated with MACS buffer. Following washing with MACS buffer the magnet was removed from the column and labeled, antigen-specific cells were eluted in MACS buffer.
# For staining of B-cells the eluted cell fraction was washed with PBS and resuspended in FACS Buffer at 2×10^7 cells/ml. […]
# [3] = second experiment, listed as with PMA
# [4] = first experiment, % of wells with IgG-secreting clones
# [5] = second experiment, % of wells with IgG-secreting clones
# [6] = second experiment, % of wells with IgG-secreting clones, listed as with PMA
molecule,measurement,setting,value
"CCCCCCCCCCCCCC(=O)O[C@@H]1[C@@H](C)[C@@]2(O)[C@@H](C=C(CO)C[C@]3(O)C(=O)C(C)=C[C@@H]23)[C@@H]2C(C)(C)[C@]12OC(C)=O [PMA, Phorbol 12-Myristate-13-Acetate]",IgG-secreting clones producing antigen-specific antibodies,"[1]; first experiment, % of total IgG-secreting clones",38%
same,No. wells with antigen-specific IgG,[1]; second experiment,19
same,% wells with antigen-specific IgG,[1]; second experiment,29%
same,% wells with antigen-specific IgG,[1]; [3],28.8%
same,wells with IgG-secreting clones containing a high IgG concentration (200-400 ng/ml),[2]; [4],14%
same,wells with IgG-secreting clones containing a low IgG concentration (10-50 ng/ml),[2]; [4],62%
same,wells with IgG-secreting clones containing an average IgG concentration (50-200 ng/ml),[2]; [4],24%
same,total wells containing IgG-secreting B-cell clones,"[2]; first experiment, single cells, IMDM with 10% FCS, SAC, sheep TSN and PMA, EL4B5 feeder cells, one week",33%
same,wells with high IgG conc. (number),[2]; second experiment,20
same,wells with low IgG conc. (number),[2]; second experiment,23
same,wells with medium IgG conc. (number),[2]; second experiment,23
same,No. IgG positive wells,"[2]; second experiment (another KLH-conjugated hapten), single cells, one week",66
same,% IgG positive wells,[2]; second experiment,approx. 16%
same,% IgG positive wells,[2]; [3],15.7%
same,wells with high IgG conc. (%),[2]; [5],30%
same,wells with low IgG conc. (%),[2]; [5],35%
same,wells with medium IgG conc. (%),[2]; [5],35%
same,wells with high IgG conc. (%),[2]; [6],30.3%
same,wells with low IgG conc. (%),[2]; [6],34.8%
same,wells with medium IgG conc. (%),[2]; [6],34.8%
same,wells with a high IgG concentration (200-400 ng/ml),sIgG+CD21+ B-cells; IMDM as basal medium,approx. 50%
same,wells with an average IgG concentration (50-200 ng/ml),sIgG+CD21+ B-cells; IMDM as basal medium,approx. 40%
same,wells containing significant levels of IgG (>50 ng/ml),sIgG+CD21+ B-cells; addition to the basal medium,approx. 90%
same,wells containing significant concentrations of IgG (>50 ng/ml),"sIgG+CD45R+ B-cells; DMEM basal medium (10% FCS, SAC, sheep TSN)",64%
same,wells with an average IgG concentration (50-200 ng/ml),sIgG+CD45R+ B-cells; IMDM as basal medium,100%
same,wells containing significant concentrations of IgG (>50 ng/ml),"sIgG+CD45R+ B-cells; IMDM basal medium (10% FCS, SAC, sheep TSN)",100%
"IL-6: human IL-6 (Roche Diagnostics GmbH), 50 ng/ml added to the basal medium",number of IgG-containing wells compared with basal medium,sIgG+CD45R+ B-cells,increase
B1,number of IgG-containing wells compared with basal medium,sIgG+CD21+ B-cells; basal medium supplemented with the factor,increase
same,number of IgG-containing wells compared with basal medium,sIgG+CD45R+ B-cells,increase
